# Data as given in patent US20260008784A1 (VASTHERA CO., LTD., priority 2022, published 2026).
# Experiments:
# [1] = tested on: yeast thioredoxin (Trx)/yeast Trx reductase (TR); assay: Peroxidase activity assay (H2O2 reduction, NADPH oxidation); assay type: biochemical; conditions: 50 μM test compound, 3 μM yeast Trx, 1.5 μM yeast TR, 250 μM NADPH, 1.2 mM H2O2, 30° C.; NADPH oxidized per minute
# Description: Hydrogen peroxide (H2O2)-reducing peroxidase activity of compounds in present invention was performed as follows. Peroxyredoxin activity was measured in reaction mixture (200 μL volume) containing 50 mM HEPES buffer (pH 7.0), 1 mM EDTA, 250 μM NADPH, 3 μM yeast thioredoxin (Trx), 1.5 μM yeast Trx reductase (TR), 50 μM test compound, and 1.2 mM H2O2.
# Reaction was initiated by adding H2O2 and the decrease in absorbance at 340 nm was measured using Agilent UV8453 spectrophotometry (Hewlett Packard, USA) at 30° C. for 12 min. Initial reaction rate is the amount of NADPH oxidized per minute calculated from slope of the linear part of curve.
# The H2O2-reducing peroxidase activity of the test compounds in present invention was measured in a reaction mixture containing thioredoxin (Trx)/thioredoxin reductase (TR), respectively.
# [2] = Measurement of redox potential (DTT redox buffers, HPLC); assay type: physicochemical; conditions: DTT(Red)/DTT(Ox) redox buffers, 3 h, 30° C., 50% reduction of test compound
# Description: A test compound (10 mM) was diluted 20-fold with each redox buffer solution and incubated for 3 h in a 30° C. water bath. Then, compounds were analyzed by HPLC. The area of peaks corresponding to the oxidized and reduced forms of test compound based on specific retention time was calculated and plotted as percent of total peak area against the Nernst equation value (mV) at x-axis. The Nernst equation value corresponding to 50% reduction of test compound was set as the midpoint redox potential value for test compound.
# The redox potential values of the test compounds were analyzed based on the potential values established in redox buffer solutions where reduced and oxidized DTT are mixed at various ratios.
# [3] = tested on: Tyr 1175 phosphorylation of VEGF receptor-2 (VEGFR2) in HAEC; assay: Immunoblot of VEGF-mediated signaling in PrxII knock-down HAEC; assay type: cell-based, human; conditions: HAECs depleted of PrxII expression, FIG. 5
# Description: (§1) Cells were quickly washed in ice-cold phosphate-buffered saline (PBS) and lysed in extraction buffer containing 20 mM Hepes (pH 7.0), 1% Triton X-100, 150 mM NaCl, 10% glycerol, 1 mM EDTA, 2 mM EGTA, and 1 mM DTT, 5 mM Na3VO4, 5 mM NaF, 1 mM AEBSF, aprotinin (5 μg/mL), and leupeptin (5 μg/mL). After cen-trifugation at 12,000×g, the clarified cell extracts were used for immunoblotting. For re-blotting, the immunoblots were retrieved in a solution of 67 mM Tris (pH 6.7), 2% SDS, and 100 mM 2-mercaptoethanol at 60° C. for 30 min to remove antibodies and rinsed three times with a Tris-buffered saline (TBS) solution containing 1% Triton X-100. The retrieved membranes were subjected to new immunoblotting.
# In human aortic endothelial cell (HAEC) and human pulmonary artery endothelial cell (PAEC) in which PrxII was knocked out by transfecting the PrxII siRNA, the ability of test compounds to replace the cellular function of PrxII was evaluated. That is, the efficacy of the new compounds was verified in terms of signaling pathways induced by VEGF that regulates the growth and migration of vascular endothelial cells in the aorta and pulmonary artery. Activation of VEGF-induced signaling pathway was analyzed by an immunoblot method using an antibody that specifically recognizes phosphorylation of Tyr 1175, which is a major phosphorylation site on VEGF receptor-2 (VEGFR2).
# [4] = tested on: human aortic endothelial cell (HAEC); assay: VEGF-induced proliferation assay, HAEC (PrxII siRNA); assay type: cell-based; conditions: for Degree of HAEC proliferation: VEGF-A 25 ng/mL, percent of untreated control
# Description: (§2) HAECs and PAECs were transfected with a PrxII-specific siRNA using RNAi MAX transfection reagent according to manufacturer's protocol. After 24 hours, transfected cells (3,000 cells/well) were seeded in a 96-well culture plate. At 12 h after seeding, cells were serum-starved for additional 18 h in EBM basal medium containing 0.5% FBS. Test compounds were serially diluted with the same basal medium containing 0.5% FBS, added to the cells ([…]), and incubated for 2 h. After treatment, cells were placed in fresh EBM medium containing 0.5% FBS and VEGF-A (25 ng/mL) for growth factor stimulation and further cultured for 24 h.
# (§3) The degree of cell proliferation was measured using the Cell Titer-GLO kit ([…]). Data are the percent of luminescence intensity averaged from three replicate wells versus that of untreated control group.
# In human aortic endothelial cell (HAEC) and human pulmonary artery endothelial cell (PAEC) in which PrxII was knocked out by transfecting the PrxII siRNA, the ability of test compounds to augment the VEGF-induced proliferation of vascular endothelial cells was evaluated. In Table 7, the degree of proliferation in the compound-treated groups is expressed as percent of the degree of proliferation in untreated control group. The effective concentrations of test compounds increasing cell proliferation by 50% (EC50) is also listed.
# [5] = tested on: Tyr 857 phosphorylation of PDGF receptor-β (PDGFRβ) in HASMC; assay: Immunoblot of PDGF-mediated signaling in PrxII knock-down HASMC; assay type: cell-based, human; conditions: HASMC depleted of PrxII expression, FIG. 2
# Description: as §1
# In human aortic smooth muscle cell (HASMC) and human pulmonary artery smooth muscle cell (PASMC) in which PrxII was knocked out by transfecting the PrxII siRNA, the ability of test compounds to replace the cellular function of PrxII was evaluated. That is, the efficacy of the new compounds was verified in terms of signaling pathways induced by PDGF that regulates the growth and migration of vascular smooth muscle cells in the aorta and pulmonary artery. Activation of PDGF-induced signaling pathway was analyzed by an immunoblot method using an antibody that specifically recognizes phosphorylation of Tyr 857, which is a major phosphorylation site on PDGF receptor (PDGFRβ).
# [6] = tested on: human aortic smooth muscle cell (HASMC); assay: PDGF-induced proliferation assay, HASMC (PrxII siRNA); assay type: cell-based; conditions: for Degree of HASMC proliferation: PDGF-BB 25 ng/mL, percent of untreated control
# Description: as §2, with “HASMCs” for “HAECs”, “PASMCs” for “PAECs”, “SmBM” for “EBM”, “PDGF-BB” for “VEGF-A”
# as §3
# (§4) In human aortic smooth muscle cell (HASMC) and human pulmonary artery smooth muscle cell (PASMC) in which PrxII was knocked out by transfecting the PrxII siRNA, the ability of test compounds to inhibit the PDGF-induced proliferation of vascular smooth muscle cells was evaluated. In Table 6, the degree of proliferation in the compound-treated groups is expressed as percent of the degree of proliferation in untreated control group. The concentrations of test compounds corresponding to 50% growth inhibition (IC50) is also listed.
# [7] = tested on: human pulmonary artery smooth muscle cell (PASMC); assay: PDGF-induced proliferation assay, PASMC (PrxII siRNA); assay type: cell-based; conditions: for Degree of PASMC proliferation: PDGF-BB 25 ng/mL, percent of untreated control
# Description: as §2, with “HASMCs” for “HAECs”, “PASMCs” for “PAECs”, “SmBM” for “EBM”, “PDGF-BB” for “VEGF-A”
# as §3, §4
# Description for in vitro: Cytotoxicity tests were performed against vascular endothelial cells, vascular smooth muscle cells and hepatocytes. After treatment with ascending concentrations of each compound, the concentration of test compound corresponding to 50% cell viability (CC50) was measured.
compound,measurement,setting,value
"CN1C(=O)C2(C)SSCC1C(=O)N2Cc1ncccn1 (centres unmarked) [Compound 16, 1,6-dimethyl-8-(pyrimidin-2-ylmethyl)-2,3-dithia-6,8-diazabicyclo[3.2.2]nonane-7,9-d ione]",Peroxidase activity for H2O2 reduction,[1],4.93 nmol/min
"O=C1C2CSSC3(CCCN13)C(=O)N2Cc1ccncc1 (centres unmarked) [Compound 11, 11-(pyridin-4-ylmethyl)tetrahydro-5H,7H-4,9a-(epiminomethano)pyrrolo[2,1-c][1,2,4]dithiazepine-5,10-dione]",Peroxidase activity for H2O2 reduction,[1],4.57 nmol/min
CN1C(=O)C2CSSC1(C)C(=O)N2Cc1ccc(F)cc1F (centres unmarked) [Compound 4],CC50,in vitro,98000 nM
same,Peroxidase activity for H2O2 reduction,[1],3.82 nmol/min
same,Midpoint redox potential (E m),[2],−292.74 mV
"COc1cc(CN2C(=O)C3(C)SSCC2C(=O)N3C)cc(OC)c1OC (centres unmarked) [Compound 3, 1,8-dimethyl-6-(3,4,5-trimethoxybenzyl)-2,3-dithia-6,8-diazabicyclo[3.2.2]nonane-7,9-dione]",CC50,in vitro,82600 nM
same,Peroxidase activity for H2O2 reduction,[1],4.11 nmol/min
same,Midpoint redox potential (E m),[2],−296 mV
"CN1CCN2C(=O)C3CSSC2(C1)C(=O)N3Cc1ccccc1 (centres unmarked) [Compound 21, 12-benzyl-9-methylhexahydro-5H-4,10a-(epiminomethano)pyrazino[2,1-c][1,2,4]dithi azepine-5,11-dione]",Effect on phosphorylation of Tyr 1175 on VEGFR2,[3],strongly abolish the phosphorylation
same,Peroxidase activity for H2O2 reduction,[1],8.38 nmol/min
same,Degree of HAEC proliferation,[4]; 2.5 nM,105.0%
same,Degree of HAEC proliferation,[4]; 5 nM,122.7%
same,Degree of HAEC proliferation,[4]; 10 nM,154.6%
same,Degree of HAEC proliferation,[4]; 25 nM,190.1%
same,Degree of HAEC proliferation,[4]; 50 nM,202.0%
same,Degree of HAEC proliferation,[4]; 100 nM,141.2%
same,EC50,"[4]; Homo sapiens, Endothelial cell, effective concentration increasing cell proliferation by 50%, VEGF-stimulated",9.96 nM
same,Effect on phosphorylation of Tyr 857 on PDGFR,[5],strongly abolish the phosphorylation
same,Midpoint redox potential (E m),[2],−272.86 mV
same,Degree of HASMC proliferation,[6]; 2.5 nM,88.1%
same,Degree of HASMC proliferation,[6]; 5 nM,63.9%
same,Degree of HASMC proliferation,[6]; 10 nM,27.2%
same,Degree of HASMC proliferation,[6]; 25 nM,4.0%
same,IC50,"[6]; Homo sapiens, HASMC, 50% growth inhibition, PDGF-stimulated",6.41 nM
same,Degree of PASMC proliferation,[7]; 2.5 nM,69.9%
same,Degree of PASMC proliferation,[7]; 5 nM,49.6%
same,Degree of PASMC proliferation,[7]; 10 nM,18.7%
same,Degree of PASMC proliferation,[7]; 25 nM,6.0%
same,Degree of PASMC proliferation,[7]; 50 nM,7.1%
same,Degree of PASMC proliferation,[7]; 100 nM,0.0%
same,IC50,"[7]; Homo sapiens, PASMC, 50% growth inhibition, PDGF-stimulated",4.51 nM
"CN1C(=O)C2(C)SSCC1C(=O)N2Cc1cn(C)cn1 (centres unmarked) [Compound 17, 1,6-dimethyl-8-((1-methyl-1H-imidazol-4-yl)methyl)-2,3-dithia-6,8-diazabicyclo[3.2.2]nonane-7,9-dione]",Peroxidase activity for H2O2 reduction,[1],4.80 nmol/min
"O=C1C2CSSC3(COCCN13)C(=O)N2Cc1ccncc1 (centres unmarked) [Compound 9, 12-(pyridin-4-ylmethyl)tetrahydro-5H,10H-4,10a-(epiminomethano)[1,4]oxazino[3,4-c][1,2,4]dithiazepin-5,11-dione]",Peroxidase activity for H2O2 reduction,[1],5.19 nmol/min
"6-benzyl-1,4,8-trimethyl-2,3-dithia-6,8-diazabicyclo[3.2.2]nonane-7,9-dione [Compound 25]",Peroxidase activity for H2O2 reduction,[1],4.51 nmol/min
"COC(=O)c1ccc(CN2C(=O)C3CSSC2(C)C(=O)N3C)cc1 (centres unmarked) [Compound 18, Methyl 4-((1,6-dimethyl-7,9-dioxo-2,3-dithia-6,8-diazabicyclo[3.2.2]nonan-8-yl)methyl)benzo ate]",Peroxidase activity for H2O2 reduction,[1],4.91 nmol/min
CN1CCN2C(=O)C3CSSC2(C1)C(=O)N3Cc1ccncc1 (centres unmarked) [Compound 22],Peroxidase activity for H2O2 reduction,[1],7.97 nmol/min
same,Effect on phosphorylation of Tyr 857 on PDGFR,[5],strongly abolish the phosphorylation
"CC1SSC2(C)C(=O)N(Cc3ccccc3)C1C(=O)N2C (centres unmarked) [Compound 24, 6-benzyl-1,4,8-trimethyl-2,3-dithia-6,8-diazabicyclo[3.2.2]nonane-7,9-dione]",Peroxidase activity for H2O2 reduction,[1],4.26 nmol/min
